Values of other authors in patent publication US11103891B2, “Pharmaceutical composition” (priority 2011, dated 2021).

Details: immediate release preparations of levodopa

- levodopa dose that reaches the brain: about 5%
Compound: N[C@@H](Cc1ccc(O)c(O)c1)C(=O)O [levodopa]
